# Experimental data from ChEMBL document CHEMBL2429783, “Discovery of epigenetic regulator I-BET762: lead optimization to afford a clinical candidate inhibitor of the BET bromodomains” (J Med Chem, 2013).
# Key:
# physchem = settings: FaSSIF, pH 6.5
# Description: Solubility of the compound in FaSSIF at pH 6.5 after 16 hrs by HPLC analysis
# PBMC = assay: cells; settings: Homo sapiens, read-out: pIC50 (converted)
# Description: Antiinflammatory activity against human PBMC cells assessed as LPS-induced IL-6 production by chemiluminescence assay
# [1] = target: Bromodomain-containing protein 2 (Homo sapiens, UniProt P25440)
# Description: Binding affinity to His6-tagged BRD2 (unknown origin) after 60 mins by fluorescence anisotropy binding Assay
# [2] = Half life in buffer at pH 2 by HPLC analysis; format: physicochemical
# [3] = target: Bromodomain-containing protein 3 (Homo sapiens, UniProt Q15059)
# Bromodomain-containing protein 3, sequence (Q15059 whole entry): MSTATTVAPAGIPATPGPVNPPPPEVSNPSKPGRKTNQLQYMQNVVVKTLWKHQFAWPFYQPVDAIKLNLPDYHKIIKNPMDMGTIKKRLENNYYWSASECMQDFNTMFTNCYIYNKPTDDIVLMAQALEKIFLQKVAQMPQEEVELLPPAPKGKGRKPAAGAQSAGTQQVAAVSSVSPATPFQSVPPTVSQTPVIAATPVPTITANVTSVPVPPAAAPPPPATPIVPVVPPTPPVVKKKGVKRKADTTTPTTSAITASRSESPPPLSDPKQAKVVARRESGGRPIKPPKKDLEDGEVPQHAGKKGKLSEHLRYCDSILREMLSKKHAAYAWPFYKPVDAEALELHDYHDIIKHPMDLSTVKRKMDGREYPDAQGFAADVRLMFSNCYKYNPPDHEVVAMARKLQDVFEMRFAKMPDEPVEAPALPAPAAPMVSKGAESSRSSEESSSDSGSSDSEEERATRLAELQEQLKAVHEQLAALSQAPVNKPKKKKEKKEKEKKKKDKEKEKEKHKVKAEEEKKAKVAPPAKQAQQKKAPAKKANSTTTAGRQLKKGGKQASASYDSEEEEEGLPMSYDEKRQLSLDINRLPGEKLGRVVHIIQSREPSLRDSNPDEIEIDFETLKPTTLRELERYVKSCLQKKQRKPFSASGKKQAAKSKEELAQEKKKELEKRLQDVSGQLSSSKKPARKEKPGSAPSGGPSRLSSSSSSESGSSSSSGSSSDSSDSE
# Description: Binding affinity to His6-tagged BRD3 (unknown origin) after 60 mins by fluorescence anisotropy binding Assay
# Bromodomain-containing protein 2, sequence (P25440 whole entry): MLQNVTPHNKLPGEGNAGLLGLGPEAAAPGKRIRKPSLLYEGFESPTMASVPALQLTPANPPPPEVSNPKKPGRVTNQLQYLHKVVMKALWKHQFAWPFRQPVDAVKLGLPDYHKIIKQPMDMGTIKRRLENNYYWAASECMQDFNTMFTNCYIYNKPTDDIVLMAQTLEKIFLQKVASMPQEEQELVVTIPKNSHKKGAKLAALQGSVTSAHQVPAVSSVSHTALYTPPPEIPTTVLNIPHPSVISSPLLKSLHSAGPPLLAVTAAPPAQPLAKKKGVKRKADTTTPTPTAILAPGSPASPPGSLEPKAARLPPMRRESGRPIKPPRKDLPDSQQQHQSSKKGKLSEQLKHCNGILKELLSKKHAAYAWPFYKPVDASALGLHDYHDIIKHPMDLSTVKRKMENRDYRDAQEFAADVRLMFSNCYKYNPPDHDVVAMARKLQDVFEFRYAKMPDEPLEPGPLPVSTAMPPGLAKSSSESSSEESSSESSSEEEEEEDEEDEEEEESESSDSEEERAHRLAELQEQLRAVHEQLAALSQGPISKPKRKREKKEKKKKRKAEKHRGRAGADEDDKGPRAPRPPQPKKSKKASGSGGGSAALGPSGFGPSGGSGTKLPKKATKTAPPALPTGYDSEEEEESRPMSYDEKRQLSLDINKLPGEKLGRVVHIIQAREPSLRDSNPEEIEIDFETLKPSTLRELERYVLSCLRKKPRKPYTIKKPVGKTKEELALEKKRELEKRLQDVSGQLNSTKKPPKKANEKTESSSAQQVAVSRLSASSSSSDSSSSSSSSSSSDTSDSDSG
Compound,solubility at 16 h (physchem) [µg/mL],IC50 (PBMC) [µM],IC50 [1] [µM],half-life [2] [min],IC50 [3] [µM]
COc1ccc2c(c1)C(c1ccc(Cl)cc1)=N[C@@H](CC(=O)Nc1cccnc1)c1nnc(C)n1-2,95,,,,
Cc1nnc2n1-c1ccc([N+](=O)[O-])cc1C(c1ccccc1)=NC2NC(=O)OCc1ccccc1 (stereo not given),,2,12.6,,
COc1ccc2c(c1)C(c1ccc(Cl)cc1)=N[C@@H](CC(=O)O)c1nnc(C)n1-2,113,> 100,,,
CCOC(=O)NC1N=C(c2ccccc2)c2ccccc2-n2c(C)nnc21 (stereo not given),,,,33.6,
COC(=O)C[C@@H]1N=C(c2ccc(Cl)cc2)c2cc(OC)ccc2-n2c(C)nnc21,115,0.126,,,
CCNC(=O)C[C@@H]1N=C(c2ccc(Cl)cc2)c2ccc(OC)cc2-n2c(C)nnc21,,0.631,,,
COc1ccc2c(c1)C(c1ccc(Cl)cc1)=N[C@@H](CC(=O)Nc1ccccn1)c1nnc(C)n1-2,115,0.316,,,
CCOC(=O)NC1N=C(c2ccc(Cl)cc2)c2ccccc2-n2c(C)nnc21 (stereo not given),,,2.51,45,1.26
Cc1nnc2n1-c1ccccc1C(c1ccccc1)=NC2CC(=O)NCc1ccccc1 (stereo not given),1,5.01,2.51,> 120,2
Cc1ccc2c(c1)-n1c(C)nnc1C(NC(=O)OCc1ccccc1)N=C2c1ccccc1 (stereo not given),,0.631,2.51,,1.26
COc1cccc(C2=NC(NC(=O)OCc3ccccc3)c3nnc(C)n3-c3ccccc32)c1 (stereo not given),,0.501,3.16,,
Cc1nnc2n1-c1ccccc1C(c1ccccc1)=NC2NC(=O)Oc1cccc(F)c1 (stereo not given),,,3.16,,1.26
Cc1ccc(C2=NC(NC(=O)OCc3ccccc3)c3nnc(C)n3-c3ccccc32)cc1 (stereo not given),,,1.58,,1
COc1ccccc1C1=NC(NC(=O)OCc2ccccc2)c2nnc(C)n2-c2ccccc21 (stereo not given),,10,10,,
